Here are results for six molecules from patent US12440469B2, “P-gp inducers as protectors against chemotherapy-induced side effects, such as peripheral neuropathy (CIPN) and hair loss” (Syddansk Universitet, priority 2019, dated 2025).

In data set [1] the test system is paclitaxel treated patients with breast or ovarian cancer. As to the kind of experiment: Paclitaxel dose modification due to peripheral neuropathy in patients using P-gp inhibitors (logistic regression). Format: in vivo, human. To be noted: for Multivariate analysis Odds-ratio of paclitaxel dose modification due to peripheral neuropathy: adjusted for age, body surface, tumor type, cancer stage, treatment schedule and previous chemotherapy; for Univariate analysis Odds-ratio of paclitaxel dose modification due to peripheral neuropathy: concomitant use with paclitaxel, 503 patients database; for increased risk of dose modification due to peripheral neuropathy: paclitaxel-treated patients, text summary of the multivariate analysis. The source says:
Data were log-transformed to ensure normality of data.
To assess if P-gp inhibition leads to increased risk of peripheral neuropathy we used a previously described database of 503 paclitaxel treated patients with breast or ovarian cancer (Sanchez-Barroso L et al. The Oncologist. 2018 Nov. 23). […] P-gp inhibitors were selected based on two literature reviews (see comments under table 1). From these reviews, we identified drugs listed as P-gp inhibitors (drugs classified as inhibitor in either review), and, within these, strong P-gp inhibitors (drugs classified as inhibitor in both reviews).
The association from univariate and multivariate analysis between paclitaxel dose modification due to peripheral neuropathy and concomitant P-gp inhibitor use is shown in Table 1.

The subject of data set [2] is iPSC-derived sensory neurons. In words: Vincristine neurotoxicity in iPSC-derived sensory neurons with or without MK-571 or rifampicin. The format is cell-based, human. The source says: Sensory neurons were generated from human induced pluripotent stem cells (iPSCs) by implementing the well-established protocol by Chambers et. al. (Nat Biotech 2012). The neuronal differentiation was initiated when iPSCs achieved 70-80% confluency using KSR medium, which contained 82% KnockOut DMEM (Gibco, 10829-018) and 15% KnockOut Serum Replacement (KSR, ThermoFisher, 10828-028), 1% GlutaMAX-I (Gibco, 35050-038), 1% mini-mum essential medium non-essential amino acids (MEM-NEAA, Gibco, 11140-035), 1% P/S and 0.055 mM β-mercaptoethanol (Gibco, 21985023).
On days 0-5, SMAD signaling was inhibited by adding 0.1 μM LDN-193189 (Selleck, S7507) and 10 μM SB-431542 (Selleck, S1067) to the medium. Medium was changed daily, and N2 medium was added with 25% increments every other day starting on day 4 (100% N2 on day 10). N2 medium consists of 97% Neurobasal medium (Gibco, 21103-049) with 1% N2 Supplement (Gibco, 17502-048), 1% B27 Supplement (Gibco, 17504-044) and 1% P/S. On days 2-10, nociceptor induction was initiated with the addition of the three inhibitors, 3 μM CHIR99021 (Selleck, S1263), 10 μM SU5402 (Selleck, S7667) and 10 μM DAPT (Selleck, S2215).
For long-term cultivation starting on day 12, cells were washed with PBS÷ and incubated with Accutase for 30 min to obtain a single-cell suspension. After incubation, the culture plates were gently rocked and cellular clumps were mechanically dissociated by pipetting up and down. The cells were filtered through a 40 μm nylon cell strainer (Corning, 431750) and centrifuged (800 rpm, 5 min, RT). Following resuspension of the pellet, iPSC-SNs were seeded as single cells on PLO/LAM/FN-coated culture plates at a density of 150,000 viable cells/cm^2. […]
Cells were treated with vincristine from 0.001-1 μM for 24 hours and immunolabeled with peripherin antibody. Quantification of network was done using ImageJ and MIPAR. […]

In data set [3] the target is T1, P-gp (Homo sapiens, UniProt P08183).
T1 construct: indicated expression of the efflux transporters P-gp and MRP1 in both SH-SY5Y cells and human dorsal root ganglion; endogenous in cells; host or cells: differentiated SH-SY5Y cells (neurons)
In words: Intracellular paclitaxel concentration (LC-MS/MS) in differentiated SH-SY5Y cells under P-gp inhibition. The format is cell-based. To be noted: 10 μM paclitaxel, 1 hour, P-gp inhibition by 4 μM valspodar, p<0.001.
Description: LC-MS/MS method to determine intracellular paclitaxel concentrations Fully differentiated SH-SY5Y cells were exposed to 1-10 μM paclitaxel for 1 hour with and without 1 hour pre-incubation with efflux transporter inhibitors. After this, media was aspirated and cells were lysed using radio immunoprecipitation assay (RIPA) buffer with 4% protease inhibitor for 10 minutes on ice. Cells were collected using a cell scraper, vortexed and sonicated (1 sec×2), centrifuged and the supernatant was stored at −80° C. until LC-MS/MS analysis. […] The LC-MS/MS system consisted of an Ultimate 3000 UHPLC system connected to a TSQ Quantiva Triple Quadropole Mass Spectrometer with heated electrospray ionization (H-ESI) (Thermo Scientific, San Jose, CA). […] Paclitaxel was quantified at the transition from (m/z) 876.18-308.00, and with (m/z) 876.18-591.11 and (m/z) 876.19-531.11 as qualifier traces. […] The limit of detection (LOD) for the method was 1 ng/mL and limit of quantification (LOQ) was 10 ng/mL. Finally, paclitaxel concentrations were adjusted for protein concentration in each well as assessed using a Pierce BCA protein assay kit.
Cells were treated with paclitaxel with and without concomitant P-gp inhibition by valspodar and intracellular levels were measured 1 hour after treatment.

The subject of data set [4] is sensory neurons derived from induced pluripotent stem cells. In words: Paclitaxel damage in iPSC-derived sensory neurons, peripherin immunolabelling. The format is cell-based, human. To be noted: paclitaxel 24 hours.
Description: Cells were treated with paclitaxel for 24 hours and immunolabeled using an antibody for peripherin.
Cells were pretreated for 48 hours with 25 μM rifampicin prior to addition of paclitaxel treatment.
Data set [5] relates to TRPV1. As to the kind of experiment: TRPV1 expression in iPSC-derived sensory neurons (RT-qPCR). The format is cell-based, human. Conditions: paclitaxel, dose-dependent.
Description: (§1) Induced pluripotent stem cells were differentiated to sensory neurons for 35-40 days as described above. Rifampicin was added 48 hours ahead of paclitaxel to increase expression of efflux transporters. Expression levels was determined using real-time qualitative polymerase chain reaction (RT-qPCR) for TRPV1 and ATF-3.
Data set [6] relates to ATF-3. In words: ATF-3 expression in iPSC-derived sensory neurons (RT-qPCR). Conditions: paclitaxel, dose-dependent. Format: cell-based, human. (In qPCR the cycle at which signal appears reflects the starting amount.)
Description: as §1
The test system of data set [7] is SH-SY5Y-derived neurons.
Description: (§2) SH-SY5Y cells (94030304, Sigma-Aldrich) were kept in DMEM/F:12 (11320074, ThermoFisher) with 15% heat-inactivated fetal bovine serum (hiFBS, F9665 Sigma-Aldrich), 1% penicillin/streptomycin (p/s) and 2 mM glutamine. Cells were split 1:10-1:20 using 0.05% trypsin-EDTA (10779413, Fisher Scientific) at 70-80% confluence.
(§3) Paclitaxel (T7402, Sigma-Aldrich) was diluted serially in DMSO (D2650, Sigma-Aldrich) and these stock solutions diluted 1:500 to ensure 0.2% DMSO in all samples. […] Valspodar (SML0572, Sigma-Aldrich) were used at a final concentration of 4 μM. Antibody against TUBB3 (MA1-118, ThermoFisher Scientific) was used at 1:1000.
(§4) Briefly, SH-SY5Y cells below passage 15 were seeded at 5-6×10^3 cells/cm^2 in uncoated 6-well plates (day 0 (D0)) and left overnight in growth media. The next day (D1) differentiation was initiated using DMEM/F:12 media with 2.5% hiFBS, 1% p/s, 2 mM glutamine and 10 μM retinoic acid (RA, R2625 Sigma-Aldrich) and media was replaced at D3 and D5. On D7 cells were split 1:1 using 0.05% trypsin-EDTA to uncoated dishes and on D8 hiFBS content was reduced to 1%. On D10 the cells were split 1:1 to extracellular matrix-coated dishes (E0282, Sigma-Aldrich). On D11 media was replaced with the final differentiation media containing neurobasal media (21103049, ThermoFisher) with 1×B27 supplement (17504044, ThermoFisher), 20 mM KCl (10697623, Fisher Scientific), 1% p/s, 1× Glutamax, 50 ng/ml brain-derived neurotrophic factor (BDNF, CST-3897S, Peprotech), 2 mM dibutyryl cyclic AMP (db-cAMP, D0627 Sigma-Aldrich) and 10 μM RA. Media was replaced on D14 and D17 and cells were tested and confirmed as fully differentiated on D18 and used for downstream applications as outlined below.
(§5) Both differentiated and undifferentiated SH-SY5Y cells were fixed using 4% paraformaldehyde. Cells were permeabilized using 0.25% Triton X-100 and unspecific binding was blocked using bovine serum albumin (BSA). Primary antibodies were incubated overnight at 4° C. and secondary antibodies were incubated for one hour at room temperature. Nuclei were stained using 1.5 μM DAPI for 5 minutes. Imaging was performed using a Leica DMI4000B microscope. Neurite morphology was assessed using the ImageJ modules CellCounter and Simple Neurite Tracer. To determine number of neurites per cell, CellCounter was used to count the number of cells with 0, 1, 2 . . . n neurites. Neurite length was determined using Simple Neurite Tracer. For both endpoints, at least five images of each condition from three separate differentiations were used. ImageJ analysis was blinded to the person assessing length and number of neurites to ensure no bias. […]
The test system of data set [8] is SH-SY5Y-derived neurons. As to the kind of experiment: Neurite number and length in differentiated SH-SY5Y cells after paclitaxel with or without valspodar.
Description: as §2, §3, §4, §5
[9] abbreviates: vincristine 0.001-1 μM, 24 hours.

A value given as a limit tells only on which side of the number the result lay.

T1 sequence (P08183 whole entry): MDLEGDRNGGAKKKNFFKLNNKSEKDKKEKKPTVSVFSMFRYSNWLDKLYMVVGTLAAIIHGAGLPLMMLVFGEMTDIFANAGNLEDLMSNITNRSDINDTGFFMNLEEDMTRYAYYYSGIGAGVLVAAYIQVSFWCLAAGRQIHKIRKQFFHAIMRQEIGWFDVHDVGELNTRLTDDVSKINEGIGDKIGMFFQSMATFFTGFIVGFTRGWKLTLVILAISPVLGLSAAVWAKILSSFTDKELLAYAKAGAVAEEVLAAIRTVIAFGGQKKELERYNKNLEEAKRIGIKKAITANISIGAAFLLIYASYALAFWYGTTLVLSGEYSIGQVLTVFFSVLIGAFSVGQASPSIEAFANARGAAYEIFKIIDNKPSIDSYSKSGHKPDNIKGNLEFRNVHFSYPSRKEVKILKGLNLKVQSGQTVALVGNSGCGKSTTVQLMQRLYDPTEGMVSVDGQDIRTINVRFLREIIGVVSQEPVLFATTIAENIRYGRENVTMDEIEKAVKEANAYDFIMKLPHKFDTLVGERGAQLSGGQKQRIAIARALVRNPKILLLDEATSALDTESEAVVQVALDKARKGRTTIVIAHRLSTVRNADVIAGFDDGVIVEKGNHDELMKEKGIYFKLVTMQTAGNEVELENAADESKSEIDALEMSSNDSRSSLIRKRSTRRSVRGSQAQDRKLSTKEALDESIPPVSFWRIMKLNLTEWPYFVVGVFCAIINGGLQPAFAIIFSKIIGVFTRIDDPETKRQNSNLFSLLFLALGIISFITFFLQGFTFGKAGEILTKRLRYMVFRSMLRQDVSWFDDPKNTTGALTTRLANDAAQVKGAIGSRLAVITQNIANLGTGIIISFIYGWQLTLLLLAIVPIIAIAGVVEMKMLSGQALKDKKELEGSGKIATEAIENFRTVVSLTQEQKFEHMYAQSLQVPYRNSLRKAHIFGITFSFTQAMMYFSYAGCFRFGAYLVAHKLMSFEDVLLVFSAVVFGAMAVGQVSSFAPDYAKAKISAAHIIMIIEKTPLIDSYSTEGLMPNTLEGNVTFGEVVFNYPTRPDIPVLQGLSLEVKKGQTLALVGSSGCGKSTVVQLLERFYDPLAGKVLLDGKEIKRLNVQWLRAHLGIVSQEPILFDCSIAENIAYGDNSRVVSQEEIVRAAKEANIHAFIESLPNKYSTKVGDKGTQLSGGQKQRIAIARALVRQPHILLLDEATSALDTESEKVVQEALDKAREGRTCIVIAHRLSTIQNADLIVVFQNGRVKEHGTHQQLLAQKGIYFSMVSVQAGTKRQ

On to `CC(C)c1c(C(=O)Nc2ccccc2)c(-c2ccccc2)c(-c2ccc(F)cc2)n1CC[C@@H](O)C[C@@H](O)CC(=O)O` [Atorvastatin], for which, in data set [1], the “Multivariate analysis Odds-ratio of paclitaxel dose modification due to peripheral neuropathy” value worked out at 7.01, the “Univariate analysis Odds-ratio of paclitaxel dose modification due to peripheral neuropathy” value came to 9.41 and the “increased risk of dose modification due to peripheral neuropathy” value is on record as 7.0 fold.
As for `CN(C)C(=O)CCSC(SCCC(=O)O)c1cccc(/C=C/c2ccc3ccc(Cl)cc3n2)c1` (centres unmarked) [MK-571], in data set [2] (4 μM MK-571 one hour ahead of vincristine, low vincristine concentrations), the “effect of MRP1 inhibition on vincristine neurotoxicity” value is on record as “substantially increased neurotoxicity”.
On to `CC(=O)O[C@H]1C(=O)[C@@]2(C)[C@H]([C@H](OC(=O)c3ccccc3)[C@]3(O)C[C@H](OC(=O)[C@H](O)[C@@H](NC(=O)c4ccccc4)c4ccccc4)C(C)=C1C3(C)C)[C@]1(OC(C)=O)CO[C@@H]1C[C@@H]2O` [Paclitaxel], for which the “increase in intracellular accumulation of paclitaxel on inhibition of P-gp” value in data set [3] is recorded as > 3 fold. Also, the “damage to sensory neurons” value in data set [4] is “marked damage”. The TRPV1 expression result in data set [5] was “substantially increased expression”. In data set [6], the ATF-3 expression entry is on record as “substantially increased expression”. Also, in data set [7], the neurite length result is recorded as “significantly reduced” and the number of neurites entry is “significantly reduced”.
On to `CCC(C)(C)C(=O)O[C@H]1C[C@@H](C)C=C2C=C[C@H](C)[C@H](CC[C@@H]3C[C@@H](O)CC(=O)O3)[C@H]21` [Simvastatin], for which, in data set [1], the “Multivariate analysis Odds-ratio of paclitaxel dose modification due to peripheral neuropathy” value turned out to be 0.31, the “Univariate analysis Odds-ratio of paclitaxel dose modification due to peripheral neuropathy” value was 0.60 and the “increased risk of dose modification due to peripheral neuropathy” value is listed as “not at increased risk”.
Take `C/C=C/C[C@@H](C)C(=O)[C@H]1C(=O)N[C@@H](C(C)C)C(=O)N(C)CC(=O)N(C)[C@@H](CC(C)C)C(=O)N[C@@H](C(C)C)C(=O)N(C)[C@@H](CC(C)C)C(=O)N[C@@H](C)C(=O)N[C@H](C)C(=O)N(C)[C@@H](CC(C)C)C(=O)N(C)[C@@H](CC(C)C)C(=O)N(C)[C@@H](C(C)C)C(=O)N1C` [valspodar]: in data set [8] (4 μM valspodar alone), the “effect on neuronal morphology without paclitaxel present” value is on record as “did not affect”. The “effect on neuronal toxicity of paclitaxel (number and length of neurites)” value in data set [8] (4 μM valspodar together with paclitaxel, 24 hours, ANOVA p<0.001) was “substantially exacerbated”.
Take `CC[C@]1(O)C[C@H]2CN(CCc3c([nH]c4ccccc34)[C@@](C(=O)OC)(c3cc4c(cc3OC)N(C=O)[C@H]3[C@@](O)(C(=O)OC)[C@H](OC(C)=O)[C@]5(CC)C=CCN6CC[C@]43[C@@H]65)C2)C1` [vincristine]: in data set [2] (setting [9]), the neurite length entry is listed as “shortened in a dose-dependent manner” and the “number of neurites extending from a cluster of sensory neurons” value is “dose-dependent decrease”.
